Assay results taken from ChEMBL document CHEMBL3091310, “Pseudo-cyclization through intramolecular hydrogen bond enables discovery of pyridine substituted pyrimidines as new Mer kinase inhibitors” (J Med Chem, 2013).

Legend:
[1] = molecular target: T1, Tyrosine-protein kinase receptor TYRO3 (Homo sapiens, UniProt Q06418)
T1 sequence (Q06418 whole entry): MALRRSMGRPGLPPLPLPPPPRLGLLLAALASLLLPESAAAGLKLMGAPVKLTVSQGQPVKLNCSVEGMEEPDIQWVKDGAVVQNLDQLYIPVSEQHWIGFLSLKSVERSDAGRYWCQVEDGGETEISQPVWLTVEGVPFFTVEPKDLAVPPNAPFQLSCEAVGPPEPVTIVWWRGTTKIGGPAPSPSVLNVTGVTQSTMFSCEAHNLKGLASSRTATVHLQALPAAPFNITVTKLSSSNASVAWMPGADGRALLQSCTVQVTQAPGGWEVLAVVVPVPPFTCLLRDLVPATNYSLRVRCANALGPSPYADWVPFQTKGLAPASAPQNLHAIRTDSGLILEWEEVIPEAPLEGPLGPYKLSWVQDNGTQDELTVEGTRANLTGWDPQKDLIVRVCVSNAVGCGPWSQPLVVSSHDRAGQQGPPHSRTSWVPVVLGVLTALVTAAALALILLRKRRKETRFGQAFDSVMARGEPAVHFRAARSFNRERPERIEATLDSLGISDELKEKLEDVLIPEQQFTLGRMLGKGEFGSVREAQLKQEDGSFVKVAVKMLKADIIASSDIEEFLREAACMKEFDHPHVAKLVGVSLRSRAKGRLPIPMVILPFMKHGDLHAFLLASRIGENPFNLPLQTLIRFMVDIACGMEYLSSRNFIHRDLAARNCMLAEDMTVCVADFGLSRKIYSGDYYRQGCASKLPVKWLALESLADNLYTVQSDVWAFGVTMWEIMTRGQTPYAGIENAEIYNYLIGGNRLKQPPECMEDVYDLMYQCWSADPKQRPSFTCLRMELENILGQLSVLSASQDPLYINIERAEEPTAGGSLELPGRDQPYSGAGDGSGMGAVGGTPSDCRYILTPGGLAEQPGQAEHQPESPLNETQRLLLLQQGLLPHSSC

[2] = molecular target: T2, Tyrosine-protein kinase receptor UFO (Homo sapiens, UniProt P30530)
T2 sequence (P30530 whole entry): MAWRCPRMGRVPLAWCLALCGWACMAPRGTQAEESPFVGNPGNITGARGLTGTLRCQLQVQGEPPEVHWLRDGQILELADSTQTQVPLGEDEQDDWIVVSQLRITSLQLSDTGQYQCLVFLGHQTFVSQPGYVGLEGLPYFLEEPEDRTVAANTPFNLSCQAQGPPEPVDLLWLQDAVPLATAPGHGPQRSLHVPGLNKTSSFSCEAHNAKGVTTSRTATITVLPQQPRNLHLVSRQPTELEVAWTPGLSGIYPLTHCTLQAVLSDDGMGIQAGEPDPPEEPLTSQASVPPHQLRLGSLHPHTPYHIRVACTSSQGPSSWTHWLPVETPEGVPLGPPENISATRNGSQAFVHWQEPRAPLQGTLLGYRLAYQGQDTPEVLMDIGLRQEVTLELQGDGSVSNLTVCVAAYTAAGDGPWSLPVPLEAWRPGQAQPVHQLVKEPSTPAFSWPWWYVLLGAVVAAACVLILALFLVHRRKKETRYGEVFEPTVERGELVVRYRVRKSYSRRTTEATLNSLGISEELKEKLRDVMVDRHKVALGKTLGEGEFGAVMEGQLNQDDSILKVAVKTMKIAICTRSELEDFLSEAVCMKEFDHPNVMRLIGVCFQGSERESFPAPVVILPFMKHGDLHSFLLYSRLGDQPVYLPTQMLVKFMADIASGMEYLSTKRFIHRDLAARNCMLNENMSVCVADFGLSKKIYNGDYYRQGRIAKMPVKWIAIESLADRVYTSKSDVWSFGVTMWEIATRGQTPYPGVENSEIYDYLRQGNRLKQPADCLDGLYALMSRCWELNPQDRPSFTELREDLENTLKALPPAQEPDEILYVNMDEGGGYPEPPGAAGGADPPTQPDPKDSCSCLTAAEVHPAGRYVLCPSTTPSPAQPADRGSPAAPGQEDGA

in vivo [3] = conditions: mouse, iv, 3 mg/kg
in vivo [4] = conditions: mouse, po, 3 mg/kg
Mus musculus = species: Mus musculus; conditions: in vivo, po, 3 mg/kg
in vivo [5] = conditions: mouse, iv, 3 mg/kg; remark: listed apart in the source
in vivo [6] = conditions: mouse, po, 3 mg/kg; remark: listed apart in the source
in vivo [7] = conditions: mouse, iv, 3 mg/kg; remark: listed apart in the source
in vivo [8] = conditions: mouse, iv, 3 mg/kg; remark: listed apart in the source
in vivo [9] = conditions: mouse, iv, 3 mg/kg; remark: listed apart in the source
in vivo [10] = conditions: mouse, po, 3 mg/kg; remark: listed apart in the source

Row | Compound | IC50 [1] [µM] | IC50 [2] [µM] | Vd (in vivo [3]) [L/kg] | AUC(0-t) (in vivo [4]) [ng·h/mL] | F (Mus musculus) [%] | clearance (in vivo [5]) [mL/min/kg] | Cmax (in vivo [6]) [ng/mL] | half-life (in vivo [7]) [min] | AUC(0-t) (in vivo [8]) [ng·h/mL] | Cmax (in vivo [9]) [ng/mL] | Tmax (in vivo [10]) [min]
1 | CCCCNc1nccc(N[C@H]2CC[C@H](O)CC2)n1 | > 30 | > 30 |  |  |  |  |  |  |  |  | 
2 | CCCCNc1ncc(-c2ccc(CN3CCC(F)(F)CC3)cn2)c(N[C@H]2CC[C@H](O)CC2)n1 |  |  | 13.7 | 210 | 55 | 123 | 71 | 178 | 381 | 737 | 15
3 | CCCCNc1ncc(-c2ccc(S(=O)(=O)N3CCOCC3)cn2)c(N[C@H]2CC[C@H](O)CC2)n1 |  |  | 2.9 | 4.68 | 1.3 | 134 | 13.9 | 54.6 | 355 | 1980 | 15
4 | CCCCNc1ncc(-c2ccc(CNC3CC3)cn2)c(N[C@H]2CC[C@H](O)CC2)n1 |  |  | 39 | 103 | 27 | 130 | 33 | 283 | 376 | 277 | 30
5 | CSc1ncc(-c2ccccn2)c(N[C@H]2CC[C@H](O)CC2)n1 | > 30 | > 30 |  |  |  |  |  |  |  |  | 

Second part, the molecule after the results:

Row | IC50 [1] [µM] | IC50 [2] [µM] | Vd (in vivo [3]) [L/kg] | AUC(0-t) (in vivo [4]) [ng·h/mL] | F (Mus musculus) [%] | clearance (in vivo [5]) [mL/min/kg] | Cmax (in vivo [6]) [ng/mL] | half-life (in vivo [7]) [min] | AUC(0-t) (in vivo [8]) [ng·h/mL] | Cmax (in vivo [9]) [ng/mL] | Tmax (in vivo [10]) [min] | Compound
6 |  |  | 3.9 | 180 | 23 | 62.2 | 162 | 95.4 | 794 | 1980 | 15 | CCCCNc1ncc(-c2ccc(CN3CCOCC3)cn2)c(N[C@H]2CC[C@H](O)CC2)n1
7 | > 30 |  |  |  |  |  |  |  |  |  |  | CCCCNc1ncc(-c2ccc(F)cc2)c(N[C@H]2CC[C@H](O)CC2)n1
8 |  | > 30 |  |  |  |  |  |  |  |  |  | O[C@H]1CC[C@H](Nc2nc(NCc3ccccc3)ncc2-c2ccccn2)CC1
